Measurements reported in EP1136554A1, “ATP binding cassette transporter 1 (ABC1) gene polymorphisms and uses thereof for the diagnosis and treatment of lipid disorders, cardiovascular diseases and inflammatory diseases” (Bayer Aktiengesellschaft, priority 2000, dated 2001).

What was measured:
[1] = test system: IL-1β secretion; experiment: IL-1β processing and secretion; assay type: cell-based; details: result in words
[2] = test system: neutral sphingomyelinase; experiment: Ceramide formation from sphingomyelin; assay type: cell-based; details: result in words
[3] = test system: human fibroblasts; experiment: Cell cycle arrest in fibroblasts; assay type: cell-based; details: result in words
[4] = test system: mononuclear phagocytes; experiment: ApoA-I mediated cellular cholesterol efflux (14C-cholesterol, E-LDL loaded monocytes); assay type: cell-based, Human; details: men and women, percent of basal unstimulated efflux
Description: Cellular Lipid Efflux. Human peripheral blood cells were isolated from lithium-heparin treated blood samples of adult, healthy volunteers. The peripheral blood mononuclear cell fraction was separated by density gradient centrifugation over Ficoll-Histopaque […] (Sigma). Cells positive for CD2, CD7, CD16, CD19 and CD56 were removed by appropriate magnetic beads (Dynal) leaving > 80% pure monocytes. Isolated monocytes were then cultured at a density of 1.5x10^5 cells/mL in polystyrene culture dishes (100x15mm Petri dish, Falcon) in a serum-free macrophage medium (Macrophage-SFM, Gibco Life Technologies) supplemented with 50ng/mL human recombinant M-CSF (R&D Systems). After an overnight incubation cells were cholesterol loaded for 24 hrs by addition of enzymatically modified LDL (E-LDL; 40 µg/ml), which was prepared as previously described (31). […] Lipids were extracted by liquid extraction according to the method of Bligh and Dyer (13). ^3H and ^14C radioactivities of the total lipid extracts were measured by liquid scintillation counting in order to distinguish between ^3H labeled phospholipids and ^14C-cholesterol. Lipid efflux was calculated as percentage of disintegrations per minute (dpm) in medium divided by the sum of dpm recovered from medium and cells. […]

[5] = test system: mononuclear phagocytes; experiment: ApoA-I mediated cellular phospholipid efflux (3H-choline labelled phospholipids); assay type: cell-based, Human; details: men and women, percent of basal unstimulated efflux
Description: Cellular Lipid Efflux. Human peripheral blood cells were isolated from lithium-heparin treated blood samples of adult, healthy volunteers. The peripheral blood mononuclear cell fraction was separated by density gradient centrifugation over Ficoll-Histopaque […] (Sigma). Cells positive for CD2, CD7, CD16, CD19 and CD56 were removed by appropriate magnetic beads (Dynal) leaving > 80% pure monocytes. Isolated monocytes were then cultured at a density of 1.5x10^5 cells/mL in polystyrene culture dishes (100x15mm Petri dish, Falcon) in a serum-free macrophage medium (Macrophage-SFM, Gibco Life Technologies) supplemented with 50ng/mL human recombinant M-CSF (R&D Systems). After an overnight incubation cells were cholesterol loaded for 24 hrs by addition of enzymatically modified LDL (E-LDL; 40 µg/ml), which was prepared as previously described (31). The incubation medium was further supplemented with ^14C-cholesterol (1.5 µCi/ml) and ^3H-choline (10µCi/ml) in order to label cellular cholesterol and choline containing phospholipids. In a subset of experiments cells were stimulated with 10 µM forskolin during the labeling period. After 24 hrs monocytes were washed and incubated for 17 hrs with or without 10 µg/ml ApoA-I (Sigma) in macrophage medium containing 0.1 % bovine serum albumin and 50ng/mL M-CSF. After incubation the media were removed and centrifuged at 800 x g to precipitate any detached cells. Cells were lysed in 0.2% SDS. Lipids were extracted by liquid extraction according to the method of Bligh and Dyer (13). ^3H and ^14C radioactivities of the total lipid extracts were measured by liquid scintillation counting in order to distinguish between ^3H labeled phospholipids and ^14C-cholesterol. Lipid efflux was calculated as percentage of disintegrations per minute (dpm) in medium divided by the sum of dpm recovered from medium and cells. The ApoA-I specific efflux is expressed a percent of basal unstimulated efflux observed in serum-free macrophage medium without ApoA-I.

Structure (SMILES)	Caspase I mediated processing of pro-IL-1β [1]	release of mature IL-1β [1]	ceramide formation from sphingomyelin mediated by neutral sphingomyelinase [2]	G2-phase cell cycle arrest [3]	Cholesterol efflux: ApoA-I [10 µg/ml]+ 24 h pretreatment with forskolin [10 µM] ([4]; 596A/A)	Cholesterol efflux: ApoA-I [10 µg/ml]+ 24 h pretreatment with forskolin [10 µM] ([4]; wt/wt 596G/G, 2589A/A)	Phospholipid efflux: ApoA-I [10 µg/ml]+ 24 h pretreatment with forskolin [10 µM] ([5]; 596A/A)	Phospholipid efflux: ApoA-I [10 µg/ml]+ 24 h pretreatment with forskolin [10 µM] ([5]; 2589G/G)	Phospholipid efflux: ApoA-I [10 µg/ml]+ 24 h pretreatment with forskolin [10 µM] ([5]; wt/wt 596G/G, 2589A/A)
COc1ccc(Cl)cc1C(=O)NCCc1ccc(S(=O)(=O)NC(=O)NC2CCCCC2)cc1 [glyburide]	inhibits	inhibits	inhibits	releases human fibroblasts from G2-phase cell cycle arrest					
C=C[C@@]1(C)CC(=O)[C@]2(O)[C@@]3(C)[C@@H](O)CCC(C)(C)[C@@H]3[C@H](O)[C@H](OC(C)=O)[C@@]2(C)O1 [forskolin]					126.7 ± 37.4%	121.8 ± 16.4%	136.7 ± 12.8%	124.5 ± 25.8%	135.4 ± 20.2%
